Columns and labels:
[1] = Freeze-thaw cycles of paint samples, Krebs Stormer viscosity; settings: for Initial Viscosity (KU): paint of Table 5, additive post-added at 2 wt %, before freeze-thaw
Protocol: The paint formulations are prepared using F/T agent 1 as shown by structures below. The octanol water partition coefficient is calculated using the method of Moriguchi et al., Chem. Pharm. Bull. 40(1), 127-130 (1992). The calculated octanol-water partition coefficient for F/T-1 is 0.69. […] Paint samples are frozen at −18° C. for 17 hours and then thawed at 25° C. for 7 hours. This constitutes 1 complete freeze-thaw cycle. Viscosities are measured after each freeze-thaw cycle using a Krebs Stormer Viscometer from Sheen at room temperature. The viscosity is measured in Krebs unit (KU). The results of freeze-thaw cycles on paint samples that contain a zero-VOC compound of the invention as a post-add are listed in the Table 6. The post-add compound is mixed at 2 wt % in the paint samples. The same paint formulation is used in preparing all the samples. The paint sample without any post-add is designated as “Blank.”
The KU values below 150 as reported in Table 9 are considered acceptable, and all the values (other than that for the Blank) reported are considered very acceptable.

[2] = pKa determination by titration with H2SO4 in water; assay type: physicochemical; settings: 0.5 N H2SO4, water as solvent
Protocol: pKa. pKa values are determined by titration using 0.5 NH2SO4 as titrant with water as solvent. Duplicate analyses are performed.

[3] = VOC according to ASTM D6886-rev gas chromatography method; assay type: physicochemical; settings: for Percent VOC measured on the crude amine sample: ASTM D6886-rev, value attributed to impurities / residual amine; for VOC classification according to ASTM D6886-rev protocol: pure compound
Protocol: “Zero or low VOC compound” and like terms mean that a particular aminoalcohol compound of the invention passes the criteria set forth by one or more gas chromatography methods, such as ASTM D6886-rev method, ISO 11890 or GB 18581. ASTM D6886-rev method is preferred.
VOC. VOC properties are tested according to the ASTM D6886-rev method.

[4] = additive 2 wt %, cycle = −18° C. 17 hours, 25° C. 7 hours

CC(C)(C)CC(C)(C)N(CC(O)CO)CC(O)CO (stereo not shown) [F/T Agent 1]
Viscosity after Freeze-Thaw cycles (KU), 1st cycle [1, 4]: 92.6 KU
Viscosity after Freeze-Thaw cycles (KU), 2nd cycle [1, 4]: 100.8 KU
Viscosity after Freeze-Thaw cycles (KU), 3rd cycle [1, 4]: 103.1 KU
Viscosity after Freeze-Thaw cycles (KU), 4th cycle [1, 4]: 104.2 KU
Viscosity after Freeze-Thaw cycles (KU), 5th cycle [1, 4]: 105.3 KU
Freeze-thaw survival of paint samples ([1]; additive as post-add): survive five freeze-thaw cycles
Initial Viscosity (KU) [1]: 85.2 KU

CC(O)CNC(CO)(CO)CO (stereo not shown) [TA-1PO, 2-(hydroxymethyl)-2-((2-hydroxypropyl)amino)propane-1,3-diol]
pKa [2]: 8

CC(C)OCC(O)CNC(CO)(CO)CO (stereo not shown) [TA-IPM, 2-((2-hydroxy-3-isopropoxypropyl)amino)-2-(hydroxymethyl)propane-1,3-diol]
pKa [2]: 7.8
Percent VOC measured on the crude amine sample [3]: 8.7%
VOC classification according to ASTM D6886-rev protocol [3]: zero VOC

CCC(O)CNC(CC)(CO)CO (stereo not shown) [AEPD-1BO, 2-ethyl-2-((2-hydroxybutyl)amino)propane-1,3-diol]
pKa [2]: 8.7

CCC(O)CN(CC(O)CC)C(C)(C)CO (stereo not shown) [AMP-2BO, 1,1′-((1-hydroxy-2-methylpropan-2-yl)azanediyl)bis(butan-2-ol)]
pKa [2]: 9.1

CC(C)(C)CC(C)(C)N(CC(O)CO)CC(O)CO (stereo not shown) [3,3′-((2,4,4-trimethylpentan-2-yl)azanediyl)bis(propane-1,2-diol)]
pKa [2]: 9
Percent VOC measured on the crude amine sample [3]: 3.6%
VOC classification according to ASTM D6886-rev protocol [3]: zero VOC

OCCN(CCO)C1CCCCC1O (stereo not shown) [DEA-CyHO, 2,2′-((2-hydroxycyclohexyl)azanediyl)diethanol]
pKa [2]: 8.6

OCCOCCO [Diethylene Glycol, diethylene glycol, reference compound]
Viscosity after Freeze-Thaw cycles (KU), 5th cycle [1, 4]: 98 KU
Initial Viscosity (KU) [1]: 91.0 KU
